From patent US20190233899A1, “METHODS FOR SELECTING TREATMENT REGIMENS AND PREDICTING OUTCOMES IN CANCER PATIENTS” (BIOMEDICA DIAGNOSTICS INC., priority 2002, published 2019)

Tests used:
[1] = First study: Cox proportional hazards analysis of disease-free survival in primary breast cancer patients (n = 761, Munich); type: in vivo, human; details: primary breast cancer n = 761, median follow-up 48 months; therapy yes vs no
From the text: The first study evaluated the clinical relevance of the combination of uPA and PAI-1 in 761 individual primary breast cancer patients (Table 3). Patients either underwent a modified radical mastectomy (n=389) or breast conserving surgery with subsequent breast irradiation (n=372) at the Department of Obstetrics and Gynecology, Technical University of Munich, Germany, between 1987 and 1998. Informed consent for analysis of tumor biological factors was obtained at primary surgery. Therapy decisions were based solely on consensus recommendations at the time but not on uPA and PAI-1. For 745 patients, information on adjuvant systemic therapy was available (Table 3). Median age of the patients at time of primary surgery was 56 years (range: 28-92 years). […] In addition to the collective as a whole, the subset of node-negative patients without adjuvant systemic therapy (n=269; median follow-up 60 months) was analyzed separately (Table 3). […]
In studies involving patients from Munich, uPA and PAI-1 antigen have been prospectively measured by ELISA (uPA: Imubind #894. PAI-1: Imubind #821; both from American Diagnostica Inc., Greenwich, Conn.) since 1987 in all primary breast cancer patients treated at our institution. […] The antigen levels in detergent extracts of breast cancer tissue are expressed as ng of analyte per mg of tissue protein. […]

[2] = Second study: Cox proportional hazards analysis of disease-free survival stratified by data set, primary breast cancer patients (Munich and Rotterdam, n = 3424); type: in vivo, human; details: for Hazard ratio (95% Confidence interval), multivariate Cox model (DFS), main effect: yes (1) vs. no (0)
From the text: The second study involved a total of 3424 primary breast cancer patients from two different data sets. One set was collected from the Department of Obstetrics and Gynecology, Technical University of Munich, Germany, and the other was from the Department of Medical Oncology, Rotterdam Cancer Institute and University Hospital Rotterdam, the Netherlands. Patients had been treated for primary breast cancer between 1987 and 1999. Treatment decisions with regard to primary surgery and adjuvant systemic therapy were based primarily on consensus recommendations at the time. Treatment strategies differed between Munich and Rotterdam, particularly regarding administration of adjuvant systemic therapy to node-positive patients (Table 4b) (Harbeck et al., 2002, J. Clin. Oncology 20:1000-1009; Foekens et al., 2000, Cancer Res. 60:636-643). Of those patients treated by adjuvant chemotherapy, the majority received CMF (Rotterdam: 76%, Munich: 65%); about one-fifth in both collectives received anthracycline-containing regimens (Rotterdam: 24%, Munich: 21%); and the rest of the Munich patients were treated by other chemotherapy regimens. The endocrine treatment used in both collectives was tamoxifen.
Median age of the patients at time of primary surgery was 56 years (range: 22-94 years). Both data sets contained established clinical and histo-morphological factors such as number of involved axillary lymph nodes, pT stage, estrogen receptor status, progesterone receptor status, exposure to adjuvant chemotherapy (CT), adjuvant endocrine therapy (HT), or adjuvant radiotherapy (RT), as well as uPA and PAI-1 measurements. Since the scoring systems for assessment of grade differed substantially between the centers and could thus represent different biological tumor characteristics, grade was not included in the combined stratified analysis. The variables were re-coded as described below in Section 6.1.3. Patients with an uncertain number of affected lymph nodes were included for computing the univariate distributions of ranked variables but not in multivariate survival analysis. Forty-five Rotterdam patients with an uncertain number of affected lymph nodes and three Munich patients with missing information on chemotherapy were not included. At the time of primary therapy, no patient had any clinical or radiological evidence of distant metastases. Follow-up data were obtained at regular intervals. Median follow-up time of all patients still alive at time of analysis was 83 months (range: 1-183 months). Within the follow-up period, 1319 patients (39%) experienced disease recurrence and 1200 patients (35%) died.
In studies involving patients from Munich, uPA and PAI-1 antigen have been prospectively measured by ELISA (uPA: Imubind #894. PAI-1: Imubind #821; both from American Diagnostica Inc., Greenwich, Conn.) since 1987 in all primary breast cancer patients treated at our institution. (Jänicke et al., 1994, Cancer Res. 54: 2527-2530). The antigen levels in detergent extracts of breast cancer tissue are expressed as ng of analyte per mg of tissue protein. In the study involving Rotterdam patients, uPA and PAI-1 antigen were measured by ELISA, employing the same antibodies as above, in cytosol preparations of the primary tumor as described by Foekens et al., 2000, Cancer Res., 60:636-643.
Due to differences in measurement techniques between the Munich and Rotterdam data sets, data re-coding was required. For the laboratory measurements of uPA, PAI-1, Estrogen receptor, and progesterone receptor, fractional ranks were computed with respect to each distribution. Fractional ranks also keep the variables on a convenient scale from zero to one, thus facilitating comparison of the […] coefficients of different factors. In particular, ranked estrogen receptor and progesterone receptor measurements were included as continuous variables in the statistical models, even though biochemical and immunohistochemical assays were used. […]

For CC/C(=C(\c1ccccc1)c1ccc(OCCN(C)C)cc1)c1ccccc1 [Adjuvant endocrine therapy, tamoxifen], the “Disease-free survival (DFS) multivariate Relative risk (95% Confidence interval)” value [1] was 0.5 (0.3-0.7), the “HR (DFS) of therapy, separate Cox model” value ([2]; 0-3 affected lymph nodes, high-uPA/PAI-1 subgroup n=1174) was 0.51 (0.33-0.78) and the “95% CI for the HR (DFS) of therapy, separate Cox model” value ([2]; 0-3 affected lymph nodes, low-uPA/PAI-1 group n=1418, not significant) was 0.59-1.44. The “HR (DFS) of therapy, separate Cox regression (2-stage model)” value ([2]; 4 or more affected nodes, low-uPA/PAI-1 subgroup) was 0.62 (95% CI, 0.43-0.90), the “HR (DFS) of therapy, separate Cox regression model” value ([2]; 4 or more nodes, high uPA/PAI-1) was 0.68 (95% CI, 0.49-0.95) and the “Hazard ratio (95% Confidence interval), multivariate Cox model (DFS), main effect” value (“Hazard ratio (95% Confidence interval)” below) ([2]; all patients n = 3,376) was 0.68 (0.56-0.82). For the same molecule, the “Hazard ratio (95% Confidence interval)” value ([2]; all patients n = 3,376, listed as HT) was 0.68, the “HR (DFS) due to therapy, separate multivariate Cox model” value ([2]; all patients, high-uPA/PAI-1 subgroup) was 0.63 and the “HR (DFS) due to therapy, separate multivariate Cox model” value ([2]; all patients, low-uPA/PAI-1 subgroup) was 0.74. For the same molecule, the “95% CI for HR of interaction HT with uPA/PAI-1 (DFS)” value ([2]; all patients, no significant interaction) was 0.66-1.28, the “Hazard ratio (95% Confidence interval)” value ([2]; patients with 0-3 involved axillary nodes n = 2592) was 0.66 (0.48-0.90) and the “Hazard ratio (95% Confidence interval)” value ([2]; patients with 4 or more involved axillary nodes n = 784) was 0.68 (0.53-0.87).
